Reference: PMC11878259 (2025)

Assays:
[1] = test system: Cy5-labeled Broccoli (RNA, aptamer) GCCCGGAUAGCUCAGUCGGUAGAGCAGCGGAGACGGUCGGGUCCAGAUAUUCGUAUCUGUCGAGUAGAGUGUGGGCUCCGCGGGUCCAGGGUUCAAGUCCCUGUUCGGGCGCCA; experiment: fluorescence imaging in RNA-peptide condensates; conditions: 100 mM K+, 1 mM Mg2+; 40 mM Tris pH 7.5, room temperature; 5 µM RNA; rU22 or rA22 with [RGRGG]5 or R10
[2] = test system: U50G, C52A, A66U (eBroccoli) (RNA, aptamer) GCCCGGAUAGCUCAGUCGGUAGAGCAGCGGAGACGGUCGGGUCCAGAUAGUAGUAUCUGUCGAGUUGAGUGUGGGCUCCGCGGGUCCAGGGUUCAAGUCCCUGUUCGGGCGCCA; experiment: fluorescence light-up, microplate; conditions: 0.5 mM K+, 10 mM Na+, 0.2 mM Mg2+, 0.1 mM Ca2+; 20 mM Tris pH 7.5; 25, 37, 45 °C; 0.5 µM RNA, 10 µM compound
[3] = test system: Cy5-labeled eBroccoli (RNA, aptamer) GCCCGGAUAGCUCAGUCGGUAGAGCAGCGGAGACGGUCGGGUCCAGAUAGUAGUAUCUGUCGAGUUGAGUGUGGGCUCCGCGGGUCCAGGGUUCAAGUCCCUGUUCGGGCGCCA; experiment: fluorescence imaging in RNA-peptide condensates; conditions: 100 mM K+, 1 mM Mg2+; 40 mM Tris pH 7.5, room temperature; 5 µM RNA; rU22 or rA22 with [RGRGG]5 or R10

Measured: binding

CC1=N/C(=C\c2cc(F)c(O)c(F)c2)C(=O)N1CC(F)(F)F
yes: all assays above
